The source of these data is patent US20250382344A1, “Soluble GLP1/GIP/NPY2 Receptor Triple Agonists” (Boehringer Ingelheim International GmH, priority 2024, published 2025).

Molecules are shown by their SMILES. Where two headings read alike, the source gives them in different places.

Data set [1] can be described thus: Solubility in 0.1 M phosphate buffer at pH 7. Conditions: 0.1 M phosphate buffer at pH 7, 10 mg/mL final peptide concentration, shaking 2 hours at room temperature, peptides as TFA-salts; measured sample pH 6.5-7.0. In kind it is physicochemical.
Data set [2] deals with T1, hGIPR (Homo sapiens, UniProt P48546).
T1 construct: expressed in transfected cells; host or cells: CHO CRE-luciferase reporter cells
T1 sequence (P48546 22-466): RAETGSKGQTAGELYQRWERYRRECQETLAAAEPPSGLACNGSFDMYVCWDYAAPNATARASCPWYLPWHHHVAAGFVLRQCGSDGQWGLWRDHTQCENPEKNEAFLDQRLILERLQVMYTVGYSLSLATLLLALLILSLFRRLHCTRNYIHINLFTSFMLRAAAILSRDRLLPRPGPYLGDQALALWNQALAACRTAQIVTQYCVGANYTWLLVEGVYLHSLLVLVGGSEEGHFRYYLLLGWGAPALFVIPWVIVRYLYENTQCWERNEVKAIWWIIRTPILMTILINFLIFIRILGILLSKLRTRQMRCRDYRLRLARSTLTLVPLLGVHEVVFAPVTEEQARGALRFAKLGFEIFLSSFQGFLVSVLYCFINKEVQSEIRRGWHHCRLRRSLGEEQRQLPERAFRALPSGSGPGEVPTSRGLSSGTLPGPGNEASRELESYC
The experiment in a line: hGIPR CreLuc assay in 0.5% and 100% plasma (CHO CRE-luciferase reporter cells). Conditions: 0.5% human plasma, read-out: hGIPR 0.5% hP. The data set is classed as cell-based. For orientation: In a reporter assay the amount or activity of a reporter protein is the signal.

Data set [3] has as its target T2, hNPY2R (Homo sapiens, UniProt P49146).
T2 construct: expressed in transfected cells; host or cells: HEK-293 CRE-luciferase reporter cells
T2 sequence (P49146 1-381): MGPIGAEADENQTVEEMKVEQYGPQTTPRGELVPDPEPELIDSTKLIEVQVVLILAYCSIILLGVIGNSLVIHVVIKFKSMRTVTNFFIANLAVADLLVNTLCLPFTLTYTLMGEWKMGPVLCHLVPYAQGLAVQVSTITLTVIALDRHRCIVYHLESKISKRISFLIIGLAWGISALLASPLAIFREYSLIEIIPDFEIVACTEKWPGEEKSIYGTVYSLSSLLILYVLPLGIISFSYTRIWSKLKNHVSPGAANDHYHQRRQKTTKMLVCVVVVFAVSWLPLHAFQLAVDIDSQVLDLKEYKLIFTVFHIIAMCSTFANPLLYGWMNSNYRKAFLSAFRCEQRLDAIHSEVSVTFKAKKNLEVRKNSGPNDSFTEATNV
The experiment in a line: hNPY2R CreLuc assay in 0.5% and 100% plasma (HEK-293 CRE-luciferase reporter cells). In kind it is cell-based. Conditions: HEK-293 reporter cells.

For the molecule `CC[C@H](C)[C@H](NC(=O)[C@H](CC(C)C)NC(=O)[C@H](Cc1c[nH]cn1)NC(=O)[C@H](CCCNC(=N)N)NC(=O)[C@@H](NC(=O)[C@H](Cc1ccccc1)NC(=O)[C@H](C)NC(=O)C(C)(C)NC(=O)[C@H](CCC(=O)O)NC(=O)[C@H](C)NC(=O)[C@H](CCC(N)=O)NC(=O)[C@H](CCCCN)NC(=O)[C@H](CCC(=O)O)NC(=O)[C@H](CC(C)C)NC(=O)C(C)(C)NC(=O)[C@@H](NC(=O)[C@H](CO)NC(=O)[C@H](Cc1ccc(O)cc1)NC(=O)[C@H](CC(=O)O)NC(=O)[C@H](CO)NC(=O)[C@@H](NC(=O)[C@H](Cc1ccccc1)NC(=O)[C@@H](NC(=O)CNC(=O)[C@H](CCC(=O)O)NC(=O)C(C)(C)NC(=O)[C@@H](N)Cc1ccc(O)cc1)[C@@H](C)O)[C@@H](C)O)[C@@H](C)CC)C(C)C)C(=O)N[C@@H](CC(N)=O)C(=O)N[C@@H](CCCCNC(=O)[C@@H](N)CCCCNC(=O)CC[C@H](NC(=O)CC[C@H](NC(=O)COCCOCCNC(=O)CC[C@H](NC(=O)CC[C@H](NC(=O)CC[C@H](NC(=O)CCCCCCCCCCCCCCCCCCC(=O)O)C(=O)O)C(=O)O)C(=O)O)C(=O)O)C(=O)O)C(=O)NC(C)(C)C(=O)N[C@H](C(=O)N[C@@H](CCCNC(=N)N)C(=O)N[C@@H](CCC(N)=O)C(=O)N[C@@H](CCCNC(=N)N)C(=O)N[C@@H](Cc1ccc(O)cc1)C(N)=O)[C@@H](C)O` [Compound 162, Y-Aib-E-G-T-F-T-S-D-Y-S-I-Aib-L-E-K-Q-A-E-Aib-A-F-V-R-H-L-I-N-K(1,3)-Aib-T-R-Q-R-Y-NH2.C20DA-gGlu-gGlu-gGlu-OEG-gGlu-gGlu-eLys(1,2)], the solubility at 2 h in data set [1] came to 8700 µg/mL. The EC50 is 0.7 nM in data set [2] and 43.8 nM in data set [3] (100% human plasma, read-out: hNPY2R 100% hP).
For `CC[C@H](C)[C@H](NC(=O)[C@H](CO)NC(=O)[C@H](Cc1ccc(O)cc1)NC(=O)[C@H](CC(=O)O)NC(=O)[C@H](CO)NC(=O)[C@@H](NC(=O)[C@H](Cc1ccccc1)NC(=O)[C@@H](NC(=O)CNC(=O)[C@H](CCC(=O)O)NC(=O)C(C)(C)NC(=O)[C@@H](N)Cc1ccc(O)cc1)[C@@H](C)O)[C@@H](C)O)C(=O)N[C@@H](C)C(=O)N[C@@H](CC(C)C)C(=O)N[C@@H](CCC(=O)O)C(=O)N[C@@H](CCCCN)C(=O)N[C@@H](CCC(N)=O)C(=O)N[C@@H](C)C(=O)N[C@@H](CCC(N)=O)C(=O)NC(C)(C)C(=O)N[C@@H](C)C(=O)N[C@@H](Cc1ccccc1)C(=O)N[C@H](C(=O)N[C@@H](CCCNC(=N)N)C(=O)N[C@@H](Cc1c[nH]cn1)C(=O)N[C@@H](CC(C)C)C(=O)N[C@H](C(=O)N[C@@H](CC(N)=O)C(=O)N[C@@H](CCCCNC(=O)[C@@H](N)CCCCNC(=O)CC[C@H](NC(=O)CC[C@H](NC(=O)CC[C@H](NC(=O)CC[C@H](NC(=O)CC[C@H](NC(=O)CC[C@H](NC(=O)CCCCCCCCCCCCCCCCC(=O)O)C(=O)O)C(=O)O)C(=O)O)C(=O)O)C(=O)O)C(=O)O)C(=O)NC(C)(C)C(=O)N[C@H](C(=O)N[C@@H](CCCNC(=N)N)C(=O)N[C@@H](CCC(N)=O)C(=O)N[C@@H](CCCNC(=N)N)C(=O)N[C@@H](Cc1ccc(O)cc1)C(N)=O)[C@@H](C)O)[C@@H](C)CC)C(C)C` [Compound 165, Y-Aib-E-G-T-F-T-S-D-Y-S-I-A-L-E-K-Q-A-Q-Aib-A-F-V-R-H-L-I-N-K(1,3)-Aib-T-R-Q-R-Y-NH2.C18DA-gGlu-gGlu-gGlu-gGlu-gGlu-gGlu-eLys(1,2)], the solubility at 2 h in data set [1] was found to be 5000 µg/mL. The EC50 worked out at 0.3 nM in data set [2] and 17.1 nM in data set [3] (0.5% human plasma, read-out: hNPY2R 0.5% hP).

What is called solubility is how much of the substance goes into solution per volume.
